Results as given in patent US4495358A, “Antibiotic pyrrolomycin E” (Meiji Seika Kaisha, Ltd., priority 1981, dated 1985).
≈ marks a conversion by molar mass, not a printed value.

Key:
[1] = Nature of the substance (acidity); format: physicochemical
[2] = Solubility; format: physicochemical
[3] = system: mice; settings: mouse, in vivo, ip, 10 mg/kg
[4] = system: Klebsiella pneumoniae PCI-602; assay: Minimum inhibitory concentration, agar dilution method; format: cell-based; settings: PCI602
Text: (§1) The physical and chemical properties and the minimum inhibitory concentration against various microorganisms as measured by agar dilution method of pyrrolomycin E as obtained by the above-described method are as follows: […]

[5] = system: Staphylococcus aureus FDA209PJC-1; assay: as above; format: cell-based; settings: FDA209PJC1
Text: as §1

[6] = system: Escherichia coli W 3630 RGN823; assay: as above; format: cell-based; settings: W3630RGN823, read-out: Minimum Inhibitory Concentration
Text: as §1

[7] = system: Staphylococcus aureus Smith; assay: as above; format: cell-based
Text: as §1

[8] = system: Serratia marcescens No. 1; assay: as above; format: cell-based
Text: as §1

[9] = system: Salmonella typhi 0-901-W; assay: as above; format: cell-based; settings: Salmonella enterica, read-out: Minimum Inhibitory Concentration
Text: as §1

[10] = system: Staphylococcus epidermidis ATCC 14990; assay: as above; format: cell-based; settings: ATCC14990
Text: as §1

[11] = system: Pseudomonas aeruginosa IAM 1007; assay: as above; format: cell-based; settings: IAM1007
Text: as §1

[12] = system: Proteus vulgaris OX-19; assay: as above; format: cell-based; settings: OX19
Text: as §1

[13] = system: Bacillus subtilis ATCC 6633; assay: as above; format: cell-based; settings: ATCC6633
Text: as §1

[14] = system: Escherichia coli NIHJ JC-2; assay: as above; format: cell-based; settings: NIHJJC2
Text: as §1

SMILES: O=[N+]([O-])c1cc(Cl)[nH]c1-c1cc(Cl)cc(Cl)c1O [pyrrolomycin E]
- acidity of the substance [1]: Weak acidic substance
- Solubility ([2]; acetone): Soluble
- Solubility ([2]; ethyl acetate): Soluble
- Solubility ([2]; methanol): Soluble
- Solubility ([2]; n-hexane): sparingly soluble
- Solubility ([2]; water): sparingly soluble
- acute toxicity (survival) [3]: All mice survived
- MIC [4]: > 100 µg/mL
- MIC [5]: 1.56 µg/mL (≈ 5.07 µM)
- MIC [6]: 12.5 µg/mL (≈ 40.6 µM)
- MIC [7]: 1.56 µg/mL (≈ 5.07 µM)
- MIC [8]: > 100 µg/mL
- MIC [9]: > 100 µg/mL
- MIC [10]: 1.56 µg/mL (≈ 5.07 µM)
- MIC [11]: > 100 µg/mL
- MIC [12]: 6.25 µg/mL (≈ 20.3 µM)
- MIC [13]: 0.025 µg/mL (≈ 0.0813 µM)
- MIC [14]: > 100 µg/mL
